# Where a name gives a salt, the structure may show the parent alone.
# Assays:
# conscious beagle dogs = assay: In vivo uroselectivity study: phenylephrine response on MAP and IUP; parameters: species or system dog; settings: 3 μg/kg p.o.
# From the text: In order to assess the uroselectivity in vivo, the effects of these compounds were studied on mean arterial pressure (MAP) and intraurethral pressure (UP) in conscious beagle dogs as per the method of Brune et al. (Pharmacol., 1996, 53:356). Briefly, male dogs were instrumented for chronic continuous measurement of arterial blood pressure by implanting a telemetry transmitter (TL11M2-D70-PCT, Data Sci. International, St. Paul, Minn. USA) into the femoral artery, two weeks prior to the study. During the recovery period, the animal was acclimatized to stay in the sling restraint. On the day of testing, overnight fasted animal was placed in the sling restraint. A Swan-Ganz. Balloon tipped catheter was introduced into the urethra at the level of prostate and the balloon was inflated (Brune. et. al. 1996). After recording the base line readings, effect of 16 μg/kg, phenylephrine (i.v.) on MAP and IUP was recorded. The response of phenylephrine to MAP and […] were recorded at 0.5, 1, 2, 3, 4, 6, 9 and 24 hours after the oral administration of vehicle or the test drug. The changes in MAP were recorded on line using Dataquest Software (Data Sci. International, St. Paul, Minn. USA). The change in phenylephrine response on […] administration after the test drug administration was calculated as percent change of that of control values. Area under curve was calculated, and the ratio of the values for MAP and IUP was used for calculating the uroselectivity (Table III).
# [1] = molecular target: T1, α1B adrenoceptor (spleen) (Rattus norvegicus, UniProt P15823); assay: In vitro functional assay, isolated spleen, phenylepinephrine contraction; format: cell-based; settings: read-out: α Adrenoceptor Subtype (pKB) α1B (converted)
# T1 construct: Isolated tissues were mounted in organ bath containing Krebs Henseleit buffer; from tissue; host or cells: isolated rat spleen
# T1 sequence (P15823 1-515): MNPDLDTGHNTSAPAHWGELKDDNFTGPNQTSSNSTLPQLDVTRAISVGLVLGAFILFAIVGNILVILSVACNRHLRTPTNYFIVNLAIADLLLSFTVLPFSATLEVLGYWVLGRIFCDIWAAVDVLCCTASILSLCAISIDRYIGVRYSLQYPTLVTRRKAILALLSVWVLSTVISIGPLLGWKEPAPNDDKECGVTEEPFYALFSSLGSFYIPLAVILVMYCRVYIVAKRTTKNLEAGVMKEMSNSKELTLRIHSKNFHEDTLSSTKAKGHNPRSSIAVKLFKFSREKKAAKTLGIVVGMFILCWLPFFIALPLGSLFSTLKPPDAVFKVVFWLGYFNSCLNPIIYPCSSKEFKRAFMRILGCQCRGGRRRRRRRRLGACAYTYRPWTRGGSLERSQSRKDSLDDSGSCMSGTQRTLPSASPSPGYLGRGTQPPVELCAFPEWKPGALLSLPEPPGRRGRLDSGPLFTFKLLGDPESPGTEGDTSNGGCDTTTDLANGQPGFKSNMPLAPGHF
# From the text: (§1) In order to study selectivity of action of these compounds towards different a-adrenoceptor subtypes, the ability of these compounds to antagonise (α1D) prostate (α1A) and spleen (α1B) was studied. Aorta and spleen tissues were isolated from urethane anaesthetized (1.5 g/kg) male wister rats. Isolated tissues were mounted in organ bath containing Krebs Henseleit buffer of the following composition (mM): NaCl 118; KCl 4.7; CaCl2 2.5; MgSO4 7H2O 1.2; NaHCO3 25; KH2PO4 1.2; glucose 11.5. Buffer was maintained at 37° C. and aereated with a mixture of 95% O2 and 5% CO2. A resting tension of 2 g (aorta) or 1 g (spleen and prostate) was applied to tissues. Contractile response was monitored using a force displacement transducer and recorded on chart recorders. Tissues were allowed to equilibrate for 2 hours. At the end of equilibration period, concentration response curves to norepinephrine (aorta) and phenylepinephrine (spleen and prostate) were obtained in the absence and presence of tested compound (at concentration of […]). Antagonist affinity was calculated and expressed as pKB values in Table II.
# α1B adrenoceptor = molecular target: T2, α1B adrenoceptor (Rattus norvegicus, UniProt P15823); assay: Radioligand binding, [3H] prazosin displacement, rat liver membranes; settings: read-out: Affinity (Ki) α1B (Rat Liver)
# T2 construct: from tissue; host or cells: rat liver membranes
# T2 sequence (P15823 1-515): T1 sequence (P15823 1-515)
# Outline: (§2)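 Rat membranes (submaxillary for α1A, liver for α1B; 150-250 μg protein) incubated with [3H]prazosin and compound in Tris 50 mM/EDTA 5 mM pH 7.4, 1 h at 24-25° C. Nonspecific binding with 300 nM prazosin; filtration, counting; Ki via Cheng–Prusoff.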
# α1D adrenoceptor (aorta) = molecular target: T3, α1D adrenoceptor (aorta) (Rattus norvegicus, UniProt P23944); assay: In vitro functional assay, isolated aorta, norepinephrine contraction; format: cell-based; settings: read-out: α Adrenoceptor Subtype (pKB) α1D (converted)
# T3 construct: Isolated tissues were mounted in organ bath containing Krebs Henseleit buffer; from tissue; host or cells: isolated rat aorta
# T3 sequence (P23944 1-561): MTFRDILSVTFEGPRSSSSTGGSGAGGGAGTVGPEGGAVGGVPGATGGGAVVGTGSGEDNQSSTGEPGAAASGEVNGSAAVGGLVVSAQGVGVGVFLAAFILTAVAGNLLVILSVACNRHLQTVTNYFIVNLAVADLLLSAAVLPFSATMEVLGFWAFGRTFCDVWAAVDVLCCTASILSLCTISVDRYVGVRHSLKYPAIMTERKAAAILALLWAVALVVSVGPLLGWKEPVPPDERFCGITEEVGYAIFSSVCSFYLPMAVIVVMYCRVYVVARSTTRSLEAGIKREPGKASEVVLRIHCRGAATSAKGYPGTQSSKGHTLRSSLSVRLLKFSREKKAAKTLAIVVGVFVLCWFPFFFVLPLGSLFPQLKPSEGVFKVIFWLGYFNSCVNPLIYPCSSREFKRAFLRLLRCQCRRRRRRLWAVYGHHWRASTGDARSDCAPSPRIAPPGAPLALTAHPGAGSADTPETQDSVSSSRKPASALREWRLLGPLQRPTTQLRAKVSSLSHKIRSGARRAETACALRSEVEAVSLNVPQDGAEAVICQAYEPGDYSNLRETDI
# From the text: as §1
# α1A adrenoceptor = molecular target: T4, α1A adrenoceptor (Rattus norvegicus, UniProt P43140); assay: Radioligand binding, [3H] prazosin displacement, rat submaxillary membranes; settings: for Ki: [3H] prazosin displacement, rat submaxillary membranes, read-out: Affinity (Ki) α1A (Rat Submaxillary); for α1B/α1A: ratio of binding affinities, rat liver / rat submaxillary
# T4 construct: from tissue; host or cells: rat submaxillary gland membranes
# T4 sequence (P43140 1-466): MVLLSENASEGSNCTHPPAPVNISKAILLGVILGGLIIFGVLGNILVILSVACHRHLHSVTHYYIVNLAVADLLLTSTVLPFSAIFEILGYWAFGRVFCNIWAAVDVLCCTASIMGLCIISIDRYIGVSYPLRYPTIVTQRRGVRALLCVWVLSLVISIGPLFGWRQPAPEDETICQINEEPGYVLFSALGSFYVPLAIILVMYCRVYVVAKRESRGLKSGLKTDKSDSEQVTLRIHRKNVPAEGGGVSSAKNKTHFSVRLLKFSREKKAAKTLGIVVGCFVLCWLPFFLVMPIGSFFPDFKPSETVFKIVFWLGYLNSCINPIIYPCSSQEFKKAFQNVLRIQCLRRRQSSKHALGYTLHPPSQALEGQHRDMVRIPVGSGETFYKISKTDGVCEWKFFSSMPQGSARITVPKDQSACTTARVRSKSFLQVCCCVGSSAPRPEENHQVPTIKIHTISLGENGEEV
# Outline: as §2
# [2] = molecular target: T5, α1A adrenoceptor (prostate) (Rattus norvegicus, UniProt P43140); assay: In vitro functional assay, isolated prostate, phenylepinephrine contraction; format: cell-based; settings: for Selectivity α1B/α1A / Selectivity α1D/α1A: functional, from pKB; for Kb: rat prostate, phenylepinephrine, read-out: α Adrenoceptor Subtype (pKB) α1A (converted)
# T5 construct: from tissue; host or cells: isolated prostate tissue
# T5 sequence (P43140 1-466): T4 sequence (P43140 1-466)
# From the text: as §1
# [3] = percent change of phenylephrine response over 24 hours
SMILES,melting point,Uroselectivity Ratio IUP/MAP (conscious beagle dogs),Area Under Curve IUP (conscious beagle dogs; [3]),Area Under Curve MAP (conscious beagle dogs; [3]),Kb [1],Ki (α1B adrenoceptor),Kb (α1D adrenoceptor (aorta)),Ki (α1A adrenoceptor),α1B/α1A (α1A adrenoceptor),Selectivity α1B/α1A [2],Selectivity α1D/α1A [2],Kb [2]
"CC(=O)OC1C=CCC2C(=O)N(CCCN3CCN(c4ccccc4OC(C)C)CC3)C(=O)C12 (centres unmarked) (as salt: hydrochloride) [Compound No. 40, 2-[3-{4-(2-Isopropoxyphenyl)piperazin-1-yllpropyl]4-acetoxy-3a,4,7,7a-tetrahydro-1H-isoindole-1,3(2H)-dione hydrochloride]",224 to 227 °C,,,,,,,,,,,
"CCOc1ccccc1OCCN[C@H](C)Cc1ccc(OC)c(S(N)(=O)=O)c1 (racemic) [Tamsulosin (SR), Tamsulosin, reference compound]",,1.47,592,868,,,,,,,,
"Cl.O=C1C2CCC(O)CC2C(=O)N1CCCN1CCN(c2ccccc2OCC(F)(F)F)CC1 (centres unmarked) [Compound No. 33, 2-[3-{4-(2-(2,2,2-Trifluoroethoxy)phenyl)piperazin-1-yl}propyl]-5-hydroxy-3a,4,5,6,7,7a-hexahydro-1H-isoindole-1,3(2H)-dione hydrochloride]",,,,,11 nM,34 nM,1.58 nM,0.24 nM,142,18,2.6,0.603 nM
"Cl.O=C1C2CC=CCC2C(=O)N1CCCN1CCN(c2ccccc2OC2CCCC2)CC1 (centres unmarked) [Compound No. 43, 2-[3-{4-(2-Cyclopentyloxyphenyl)piperazin-1-yl}propyl]-3a,4,7,7a-tetrahydro-1H-isoindole-1,3(2H)-dione hydrochloride]",,,,,12.6 nM,50 nM,0.741 nM,0.5 nM,100,7.4,0.43,1.7 nM
"CC(=O)OC1C=CC(OC(C)=O)C2C(=O)N(CCCN3CCN(c4ccccc4OC(C)C)CC3)C(=O)C12.Cl (centres unmarked) [Compound No. 73, 2-[3-{4-(2-Isopropoxyphenyl)piperazin-1-yl}propyl]-4,7-diacetoxy-3a,4,7,7a-tetrahydro-1H-isoindole-1,3(2H)-dione hydrochloride]",176 to 177 °C,,,,,192 nM,,8.45 nM,23,,,
"Cl.O=C1CCCC(=O)N1CCCN1CCN(c2ccccc2O)CC1 [compound 01, 1-[4-(2-Hydroxyphenyl)piperazin-1-yl]-3-(2,6-dioxopiperidin-1-yl)propane hydrochloride]",,,,,38 nM,80 nM,12 nM,8.55 nM,9,3.8,1.2,10 nM
"Cl.O=C1C2CC=CCC2C(=O)N1CCCN1CCN(c2ccccc2OCC(F)(F)F)CC1 (centres unmarked) [compound 02, 2-[3-{4-(2-(2,2,2-Trifluoroethoxy)phenyl)piperazin-1-yl}propyl]-3a, 4,7,7a-tetrahydro-1H-isoindole-1,3(2H)-dione hydrochloride]",,,,,1.29 nM,27 nM,0.0316 nM,0.17 nM,159,7.07,0.17,0.182 nM
O=C1CCCC(=O)N1CCCN1CCN(c2ccccc2OCC(F)(F)F)CC1 [compound 03],,,,,0.275 nM,47 nM,0.148 nM,0.26 nM,181,0.7,0.38,0.389 nM
"CC(C)Oc1ccccc1N1CCN(CC(O)CN2C(=O)C3CC=CCC3C2=O)CC1.Cl (centres unmarked) [compound 07, 2-[3-{4-(2-Isopropoxyphenyl)piperazin-1-yl}-2-hydroxypropyl]-3a,4,7,7a-tetrahydro-1H-isoindole-1,3(2H)-dione hydrochloride]",,,,,15.8 nM,106 nM,2.29 nM,0.56 nM,189,13,1.9,1.23 nM
"CC(C)Oc1ccccc1N1CC[N+]([O-])(CCCN2C(=O)C3CC=CCC3C2=O)CC1 (centres unmarked) [compound 08, 2-[3-{4-(2-Isopropoxyphenyl)piperazin-1-yl, 1-N-oxide}propyl]-3a,4,7,7a-tetrahydro-1H-isoindole-1,3(2H)-dione]",,,,,1.02 nM,4770 nM,21.9 nM,6.6 nM,722,0.24,5.24,4.17 nM
"CC(C)Oc1ccccc1[N+]1([O-])CC[N+]([O-])(CCCN2C(=O)C3CC=CCC3C2=O)CC1 (centres unmarked) [compound 09, 2-[3-{4-(2-Isopropoxyphenyl)piperazin-1-yl, 1,4-N,N-dioxide}propyl]-3a,4,7,7a-tetrahydro-1H-isoindole-1,3-(2H)-dione]",,,,,23.4 nM,> 1000 nM,100 nM,1070 nM,,3.3,14,7.08 nM

# From patent US20050228180A1, “Alpha, omega-dicarboximide derivatives as useful uro-selective a1a adrenoceptor blockers” (priority 2002, published 2005)
